Measured values reported in patent US20230027864A1, “COMPOSITIONS AND METHODS FOR DELIVERY OF AGENTS TO IMMUNE CELLS” (ModernaTX, Inc., priority 2018, published 2023).

Experiments:
T cells [1] = test: Additional LNPs: T cell transfection in vitro, mOX40L mRNA, labeled LNPs; format: cell-based, human; conditions: for immune cell delivery potentiating ability in T cells, sterol panel: structural component, FIG. 44; for immune cell delivery potentiating ability in T cells, other ionizable lipids: third series, against Compound I-18 formulations, FIG. 47; for immune cell delivery potentiating ability in T cells, amino lipid panel: ionizable lipid component, FIG. 43; for immune cell delivery potentiating ability in T cells, helper lipid panel: phospholipid component, FIG. 45
Method: In this Example, additional LNPs comprising various lipid components and at different ratios were made and tested for their ability to transfect T cells in vitro. Transfection was performed as in Example 5 using LNPs encapsulating an mRNA encoding mouse OX40L. LNPs were labeled and the results were determined for the mean % cells with LNPs associated, the mean % cells expressing mOX40L and the % of LNP-associated cells expressing mOX40L, as described hereinbefore.

T cells [2] = test: LNP association and GFP mRNA expression in T cells of human PBMCs; format: cell-based; conditions: for immune cell delivery potentiating ability in T cells, amino lipid panel: ionizable lipid component of the LNP, FIG. 30
Method: In a second series of experiments, additional compounds, were tested in the LNPs for their ability to enhance delivery to T cells. For these experiments, the association of the LNP with cells and the expression of mRNA-encoding protein within the transfected cells was assessed at the cell-by-cell level. Peripheral blood mononuclear cells (PBMCs) from human donors were used. PBMCs were predominately T cells (40-60%), B cells (3-15%), and monocytes (15-35%), but also contained small numbers of other cell types. LNPs were incubated with serum or PBS for 30 minutes and then added to the PBMCs. The LNP concentration was 0.050 mg/ml, the LNP volume was 0.1 ml.
LNPs contained 0.1% Rhodamine-DOPE in addition to the other LNP components to facilitate detection. Thus, the ratios set forth in the tables below include 0.1 for the rhodamine label. For example, 50:10:10:27.9:2:0.1 AL:DSPC:chol:sterol:Cmp 428 indicates 50% amino lipid as the ionizable lipid, 10% DSPC as the phospholipid, 10% cholesterol, 27.9% phytosterol, 2% Compound 428 as the PEG lipid and 0.1% for the rhodamine-DOPE label. To prepare a non-labeled LNP, the same ratios are used except that the 0.1% rhodamine label is omitted and an additional 0.1% of structural lipid (cholesterol or cholesterol/phytosterol blend) is used (e.g., 27.9% becomes 28%).
Cells were sorted by flow cytometry into subsets based on expression of certain markers: CD3 (T cells), CD20 (B cells), and CD3-, CD20-, CD14+(Monocytes).
mRNA encoding GFP was used as a model agent to effect expression of an intracellular protein.
When conducting flow cytometry, the Y-axis was signal from the rhodamine tag on the LNP and the X-axis was the GFP signal showing expression of the protein.
The “associated” population is any rhodamine+ and/or GFP+ cell and the percent of these cells was calculated by dividing by the total number of cells. The “expression” population is any GFP+ cell and the percent of these cells was calculated by dividing by the total number of cells. The percent of associated cells expressing was obtained by dividing the % expressing cells by the % associated cells.

Row | Compound | immune cell delivery potentiating ability in T cells, sterol panel (T cells [1]) | immune cell delivery potentiating ability in T cells, amino lipid panel (T cells [1]) | other results
1 | CCC(/C=C/[C@@H](C)[C@H]1CC[C@H]2[C@@H]3CC=C4C[C@@H](O)CC[C@]4(C)[C@H]3CC[C@]12C)(CC)CC [Compound 5-166] | exhibited immune cell delivery potentiating ability in T cells | – | –
2 | CC(C)C(CC[C@@H](C)[C@H]1CC[C@H]2[C@@H]3CC[C@H]4C[C@@H](O)CC[C@]4(C)[C@H]3CC[C@]12C)C(C)C [Compound 5-173] | exhibited immune cell delivery potentiating ability in T cells | – | –
3 | CC(C)C(/C=C/[C@@H](C)[C@H]1CC[C@H]2[C@@H]3CC=C4C[C@@H](O)CC[C@]4(C)[C@H]3CC[C@]12C)C(C)C [Compound 5-167] | exhibited immune cell delivery potentiating ability in T cells | – | –
4 | CCCCCCCCCCC(O)CN(CCCCC1NC(=O)C(CCCCN(CC(O)CCCCCCCCCC)CC(O)CCCCCCCCCC)NC1=O)CC(O)CCCCCCCCCC (stereo not drawn) [CKK-E12, reference compound] | – | – | immune cell delivery potentiating ability in T cells, other ionizable lipids (T cells [1]): exhibited immune cell delivery potentiating ability in T cells
5 | CC(C)[C@@H](C)CC[C@@H](C)[C@H]1CC[C@H]2[C@@H]3CC[C@H]4C[C@@H](O)CC[C@]4(C)[C@H]3CC[C@]12C [Compound S-151] | exhibited immune cell delivery potentiating ability in T cells | – | –
6 | CC[C@H](CC[C@@H](C)[C@H]1CC[C@H]2[C@@H]3CC[C@H]4C[C@@H](O)CC[C@]4(C)[C@H]3CC[C@]12C)C(C)C [Compound S-144, β-sitostanol] | exhibited immune cell delivery potentiating ability in T cells | – | –
7 | CCCCCCCCC(C)OC(=O)CCCCCCCN(CCO)CCCCCCCC(=O)OC(CCCCCCCC)CCCCCCCC (stereo not drawn) [Compound I-48] | – | exhibited immune cell delivery potentiating ability in T cells | immune cell delivery potentiating ability in T cells, amino lipid panel (T cells [2]): exhibited immune cell delivery potentiating ability in T cells
8 | CCCCCCCCC(CCC)OC(=O)CCCCCCCN(CCCO)CCCCCCCC(=O)OC(CCCCCCCC)CCCCCCCC (stereo not drawn) [Compound I-328] | – | – | immune cell delivery potentiating ability in T cells, amino lipid panel (T cells [2]): exhibited immune cell delivery potentiating ability in T cells
9 | CCCCCCCCC(CCC)OC(=O)CCCCCCCN(CCO)CCCCCCCC(=O)OC(CCCCCCCC)CCCCCCCC (stereo not drawn) [Compound I-50] | – | – | immune cell delivery potentiating ability in T cells, amino lipid panel (T cells [2]): exhibited immune cell delivery potentiating ability in T cells
10 | CCCCCCCCC(CCC)OC(=O)CCCCCCCN(CCCCCCCC(=O)OC(CCCCCCCC)CCCCCCCC)CCCNS(C)(=O)=O (stereo not drawn) [Compound I-330] | – | – | immune cell delivery potentiating ability in T cells, amino lipid panel (T cells [2]): exhibited immune cell delivery potentiating ability in T cells
11 | CCCCCCCCC(CCC)OC(=O)CCCCCCCN(CCCCCCCC(=O)OC(CCCCCCCC)CCCCCCCC)CCCNc1c(NC)c(=O)c1=O (stereo not drawn) [Compound I-348] | – | exhibited immune cell delivery potentiating ability in T cells | –
12 | CCCCCCCCC(CC)OC(=O)CCCCCCCN(CCCCCCCC(=O)OC(CCCCCCCC)CCCCCCCC)CCCCNc1c(NC)c(=O)c1=O (stereo not drawn) [Compound I-352] | – | exhibited immune cell delivery potentiating ability in T cells | –
13 | CC(C)[C@@H](C)/C=C/[C@@H](C)[C@H]1CC[C@H]2[C@@H]3CC=C4C[C@@H](O)CC[C@]4(C)[C@H]3CC[C@]12C [Compound S-148, brassicasterol] | exhibited immune cell delivery potentiating ability in T cells | – | –
14 | CCCCCCCCC(CC)OC(=O)CCCCCN(CCCCCCCC(=O)OC(CCCCCCCC)CCCCCCCC)CCCNc1c(NC)c(=O)c1=O (stereo not drawn) [Compound I-350] | – | exhibited immune cell delivery potentiating ability in T cells | –
15 | CC(C)[C@H](C)CC[C@@H](C)[C@H]1CC[C@H]2[C@@H]3CC=C4C[C@@H](O)CC[C@]4(C)[C@H]3CC[C@]12C [Compound S-143, campesterol] | exhibited immune cell delivery potentiating ability in T cells | – | –
16 | CCCCCCCCCOC(=O)CCCCCCCN(CCCCCCCC(=O)OC(CCCCCCCC)CCCCCCCC)CCCCNc1c(NC)c(=O)c1=O [Compound I-351] | – | exhibited immune cell delivery potentiating ability in T cells | –
17 | CCCCCC=CCC=CCCCCCCCCC(CCCCCCCCC=CCC=CCCCCC)OC(=O)CCCN(C)C (stereo not drawn) [MC3, heptatriaconta-6,9,28,31-tetraen-19-yl 4-(dimethylamino)butanoate, reference compound] | – | – | immune cell delivery potentiating ability in T cells, other ionizable lipids (T cells [1]): exhibited immune cell delivery potentiating ability in T cells
18 | CCC(/C=C/[C@@H](C)[C@H]1CC[C@H]2[C@@H]3CC=C4C[C@@H](O)CC[C@]4(C)[C@H]3CC[C@]12C)CC [Compound 5-160] | exhibited immune cell delivery potentiating ability in T cells | – | –
19 | CCCCCCCCCCCCCCCC(=O)OC[C@H](COP(=O)([O-])OCC[N+](C)(C)C)OC(=O)CCCCCCCCCCCCCCC [DPPC, 1,2-dipalmitoyl-sn-glycero-3-phosphocholine, reference compound] | – | – | immune cell delivery potentiating ability in T cells, helper lipid panel (T cells [1]): exhibited immune cell delivery potentiating ability in T cells
20 | CCCCCCCCCCCOC(=O)CCCCCN(CCCCCCCC(=O)OC(CCCCCCCC)CCCCCCCC)CCCNc1c(NC)c(=O)c1=O [Compound I-317] | – | exhibited immune cell delivery potentiating ability in T cells | –
21 | CCCCCCCCC(C)OC(=O)CCCCCCCN(CCCCCCCC(=O)OC(CCCCCCCC)CCCCCCCC)CCCNc1c(NC)c(=O)c1=O (stereo not drawn) [Compound I-347] | – | exhibited immune cell delivery potentiating ability in T cells | –
22 | CC(C)[C@H](C)CC[C@@H](C)[C@H]1CC[C@H]2[C@@H]3CC[C@H]4C[C@@H](O)CC[C@]4(C)[C@H]3CC[C@]12C [Compound 5-159] | exhibited immune cell delivery potentiating ability in T cells | – | –
23 | CCCCCCCCCOC(=O)CCCCCCCN(CCCCCCCC(=O)OC(CCCCCCCC)CCCCCCCC)CCCNc1c(NCC)c(=O)c1=O [Compound I-292] | – | exhibited immune cell delivery potentiating ability in T cells | immune cell delivery potentiating ability in T cells, amino lipid panel (T cells [2]): exhibited immune cell delivery potentiating ability in T cells
24 | CCCCCCCCCCCCCCCCCC(=O)OC[C@H](COP(=O)([O-])OCC[N+](C)(C)C)OC(=O)CCCCCCCCCCCCCCCCC [DSPC, 1,2-distearoyl-sn-glycero-3-phosphocholine, reference compound] | – | – | immune cell delivery potentiating ability in T cells, helper lipid panel (T cells [2]; phospholipid component of the LNP, FIG. 32): exhibited immune cell delivery potentiating ability in T cells
25 | CCCCCCCCCCCCCC(=O)OC[C@H](COP(=O)([O-])OCC[N+](C)(C)C)OC(=O)CCCCCCCCCCCCC [DMPC, 1,2-dimyristoyl-sn-glycero-phosphocholine, reference compound] | – | – | immune cell delivery potentiating ability in T cells, helper lipid panel (T cells [1]): exhibited immune cell delivery potentiating ability in T cells
26 | CC[C@H](/C=C/[C@@H](C)[C@H]1CC[C@H]2[C@@H]3CC=C4C[C@@H](O)CC[C@]4(C)[C@H]3CC[C@]12C)C(C)C [Compound S-140] | exhibited immune cell delivery potentiating ability in T cells | – | –
27 | CCCCCCCCCC(=O)OCCCCCCCN(CCCCCCCC(=O)OC(CCCCCCCC)CCCCCCCC)CCCNc1c(NC)c(=O)c1=O [Compound I-309] | – | exhibited immune cell delivery potentiating ability in T cells | –
28 | CCCCCCCCC(C)OC(=O)CCCCCN(CCCCCCCC(=O)OC(CCCCCCCC)CCCCCCCC)CCCNc1c(NC)c(=O)c1=O (stereo not drawn) [Compound I-349] | – | exhibited immune cell delivery potentiating ability in T cells | –
